Data from ChEMBL document CHEMBL1150907, “Epolones: novel sesquiterpene-tropolones from fungus OS-F69284 that induce erythropoietin in human cells” (1998).

Columns and labels:
Hep 3B2 [1] = assay: Induction of human erythropoietin gene expression in human Hep3B cells over expressing human EPO assessed as concentration required to produce 5-fold induction ratio by luciferase reporter gene assay relative to control; format: functional
Hep 3B2 [2] = assay: Induction of erythropoietin secretion in human Hep3B cells expressing human EPO at 10 uM by ELISA; format: functional
Hep 3B2 [3] = assay: Induction of human erythropoietin gene expression in human Hep3B cells over expressing human EPO assessed as maximum induction ratio at 4.3 uM by luciferase reporter gene assay relative to control; format: functional
[4] = Cytotoxicity against human Hep3B cells after 48 hrs by MTT assay; format: functional, Hep 3B2
Hep 3B2 [5] = assay: Induction of human erythropoietin gene expression in human Hep3B cells over expressing human EPO assessed as maximum induction ratio at 6.5 uM by luciferase reporter gene assay relative to control; format: functional

Row | Compound | Activity (Hep 3B2 [1]) | Activity (Hep 3B2 [2]) | Ratio (Hep 3B2 [3]) | IC90 [4] | Ratio (Hep 3B2 [5])
1 | Cc1cc(=O)c(O)cc2c1C[C@H]1CC(C)(C)/C=C/C[C@@]3(C)Oc4cc(O)cc(C)c4C[C@@H]3C[C@H](O)[C@]1(C)O2 [EPOLONE A] | 1 µM | 45 mU/ml | 26 | > 40 µM | 
2 | C/C1=C\CC(C)(C)/C=C/C[C@@]2(C)Oc3cc(O)c(=O)cc(C)c3C[C@@H]2C[C@H]1O [EPOLONE B] | 1.5 µM | 40 mU/ml |  | > 40 µM | 22
3 | Cc1cc(=O)c(O)cc2c1C[C@H]1CC(C)(C)/C=C/C[C@@]3(C)Oc4cc(O)c(=O)cc(C)c4C[C@@H]3C[C@H](O)[C@]1(C)O2 [PYCNIDIONE] | 1.6 µM | 34 mU/ml | 19 | > 40 µM | 
